Test results published in ChEMBL document CHEMBL5465560, “Selectivity Literature for EUbOPEN Chemogenomic Library” (2024).

Key:
[1] = target: T1, Mitogen-activated protein kinase kinase kinase 13 (Homo sapiens) (UniProt O43283); assay: Selectivity interaction (KinomeScan (DiscoverX)) EUB0000695a MAP3K13; settings: at 100 nM
T1 sequence (whole entry): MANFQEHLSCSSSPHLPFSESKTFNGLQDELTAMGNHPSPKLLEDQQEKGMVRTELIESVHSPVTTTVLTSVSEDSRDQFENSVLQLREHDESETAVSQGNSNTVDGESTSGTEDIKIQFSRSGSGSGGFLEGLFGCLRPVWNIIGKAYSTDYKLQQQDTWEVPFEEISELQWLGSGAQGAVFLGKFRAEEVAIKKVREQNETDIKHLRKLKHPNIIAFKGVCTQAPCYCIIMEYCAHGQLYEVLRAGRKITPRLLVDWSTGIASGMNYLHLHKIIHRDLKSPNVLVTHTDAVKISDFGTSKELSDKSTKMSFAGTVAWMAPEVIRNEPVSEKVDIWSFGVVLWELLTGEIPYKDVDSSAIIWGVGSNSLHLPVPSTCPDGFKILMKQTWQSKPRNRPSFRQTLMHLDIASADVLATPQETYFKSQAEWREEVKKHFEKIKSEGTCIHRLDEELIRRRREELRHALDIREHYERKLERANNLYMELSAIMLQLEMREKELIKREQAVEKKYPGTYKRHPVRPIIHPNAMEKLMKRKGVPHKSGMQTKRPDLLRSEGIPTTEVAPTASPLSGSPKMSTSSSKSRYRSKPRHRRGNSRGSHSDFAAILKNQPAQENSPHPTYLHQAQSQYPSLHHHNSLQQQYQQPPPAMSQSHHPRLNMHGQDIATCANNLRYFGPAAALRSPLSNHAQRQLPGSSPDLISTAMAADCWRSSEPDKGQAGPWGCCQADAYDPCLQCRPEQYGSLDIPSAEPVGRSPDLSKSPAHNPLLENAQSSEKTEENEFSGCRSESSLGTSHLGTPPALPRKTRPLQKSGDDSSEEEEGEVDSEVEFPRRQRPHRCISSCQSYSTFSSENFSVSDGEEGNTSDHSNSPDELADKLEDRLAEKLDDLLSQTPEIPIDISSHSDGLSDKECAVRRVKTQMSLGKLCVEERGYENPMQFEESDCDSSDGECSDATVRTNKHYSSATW

[2] = target: T2, Muscle, skeletal receptor tyrosine-protein kinase (Homo sapiens) (UniProt O15146); assay: Selectivity interaction (KinomeScan (DiscoverX)) EUB0001079a MUSK; settings: at 1 µM
T2 sequence (whole entry): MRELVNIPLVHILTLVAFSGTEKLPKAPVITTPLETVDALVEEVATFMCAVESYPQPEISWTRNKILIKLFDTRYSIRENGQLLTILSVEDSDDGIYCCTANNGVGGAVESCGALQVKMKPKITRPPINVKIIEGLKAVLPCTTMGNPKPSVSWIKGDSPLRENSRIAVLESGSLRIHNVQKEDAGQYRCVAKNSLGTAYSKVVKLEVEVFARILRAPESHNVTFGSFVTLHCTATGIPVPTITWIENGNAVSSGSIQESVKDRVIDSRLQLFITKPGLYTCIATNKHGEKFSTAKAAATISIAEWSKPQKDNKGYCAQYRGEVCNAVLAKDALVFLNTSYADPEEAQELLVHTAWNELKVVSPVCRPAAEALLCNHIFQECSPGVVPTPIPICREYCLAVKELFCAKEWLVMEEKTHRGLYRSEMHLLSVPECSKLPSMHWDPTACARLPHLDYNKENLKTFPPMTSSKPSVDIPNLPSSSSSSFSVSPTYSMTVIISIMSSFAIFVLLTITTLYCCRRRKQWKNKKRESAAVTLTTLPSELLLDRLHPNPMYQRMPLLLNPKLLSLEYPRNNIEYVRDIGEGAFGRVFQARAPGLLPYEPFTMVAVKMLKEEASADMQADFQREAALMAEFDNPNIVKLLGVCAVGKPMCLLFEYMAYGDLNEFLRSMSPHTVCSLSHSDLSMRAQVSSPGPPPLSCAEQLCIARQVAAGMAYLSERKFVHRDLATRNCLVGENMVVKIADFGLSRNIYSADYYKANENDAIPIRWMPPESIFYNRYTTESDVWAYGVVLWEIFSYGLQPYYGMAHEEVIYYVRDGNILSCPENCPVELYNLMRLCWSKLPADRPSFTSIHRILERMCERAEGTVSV

Misshapen-like kinase 1 = Misshapen-like kinase 1 (Homo sapiens, UniProt Q8N4C8); assay: Selectivity interaction (KinomeScan (DiscoverX)) EUB0001049a MINK1; settings: at 1 µM
[3] = target: T3, Ephrin type-B receptor 4 (Homo sapiens) (UniProt P54760); assay: Selectivity interaction (KinomeScan (DiscoverX)) EUB0000618a EPHB4; settings: at 10 µM
T3 sequence (whole entry): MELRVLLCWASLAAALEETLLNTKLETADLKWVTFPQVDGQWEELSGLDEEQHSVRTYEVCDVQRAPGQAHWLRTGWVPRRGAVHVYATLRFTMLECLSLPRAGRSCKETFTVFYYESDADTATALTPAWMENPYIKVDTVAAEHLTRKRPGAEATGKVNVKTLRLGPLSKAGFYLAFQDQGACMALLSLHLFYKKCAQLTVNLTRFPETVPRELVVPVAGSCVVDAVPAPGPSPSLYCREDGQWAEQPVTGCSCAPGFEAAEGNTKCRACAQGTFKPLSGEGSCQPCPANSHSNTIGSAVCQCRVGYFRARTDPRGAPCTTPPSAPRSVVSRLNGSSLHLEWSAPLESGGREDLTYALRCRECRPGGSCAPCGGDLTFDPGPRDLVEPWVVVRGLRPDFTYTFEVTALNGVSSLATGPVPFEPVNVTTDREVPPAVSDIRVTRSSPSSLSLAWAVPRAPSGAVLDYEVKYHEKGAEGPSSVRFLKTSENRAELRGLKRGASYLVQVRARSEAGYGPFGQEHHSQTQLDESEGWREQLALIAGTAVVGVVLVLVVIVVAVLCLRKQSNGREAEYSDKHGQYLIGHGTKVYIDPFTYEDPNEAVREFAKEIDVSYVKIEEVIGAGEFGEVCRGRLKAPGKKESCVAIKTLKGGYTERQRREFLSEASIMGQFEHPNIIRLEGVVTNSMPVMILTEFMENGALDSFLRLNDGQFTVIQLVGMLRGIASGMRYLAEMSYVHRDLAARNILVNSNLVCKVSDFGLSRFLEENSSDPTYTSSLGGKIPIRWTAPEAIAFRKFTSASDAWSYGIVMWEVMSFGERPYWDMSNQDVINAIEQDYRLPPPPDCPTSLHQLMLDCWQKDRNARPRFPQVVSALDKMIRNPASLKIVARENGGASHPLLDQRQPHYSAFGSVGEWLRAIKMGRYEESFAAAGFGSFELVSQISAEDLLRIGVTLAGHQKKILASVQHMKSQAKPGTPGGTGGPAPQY

Misshapen-like kinase 1, sequence (Q8N4C8 whole entry, looked up): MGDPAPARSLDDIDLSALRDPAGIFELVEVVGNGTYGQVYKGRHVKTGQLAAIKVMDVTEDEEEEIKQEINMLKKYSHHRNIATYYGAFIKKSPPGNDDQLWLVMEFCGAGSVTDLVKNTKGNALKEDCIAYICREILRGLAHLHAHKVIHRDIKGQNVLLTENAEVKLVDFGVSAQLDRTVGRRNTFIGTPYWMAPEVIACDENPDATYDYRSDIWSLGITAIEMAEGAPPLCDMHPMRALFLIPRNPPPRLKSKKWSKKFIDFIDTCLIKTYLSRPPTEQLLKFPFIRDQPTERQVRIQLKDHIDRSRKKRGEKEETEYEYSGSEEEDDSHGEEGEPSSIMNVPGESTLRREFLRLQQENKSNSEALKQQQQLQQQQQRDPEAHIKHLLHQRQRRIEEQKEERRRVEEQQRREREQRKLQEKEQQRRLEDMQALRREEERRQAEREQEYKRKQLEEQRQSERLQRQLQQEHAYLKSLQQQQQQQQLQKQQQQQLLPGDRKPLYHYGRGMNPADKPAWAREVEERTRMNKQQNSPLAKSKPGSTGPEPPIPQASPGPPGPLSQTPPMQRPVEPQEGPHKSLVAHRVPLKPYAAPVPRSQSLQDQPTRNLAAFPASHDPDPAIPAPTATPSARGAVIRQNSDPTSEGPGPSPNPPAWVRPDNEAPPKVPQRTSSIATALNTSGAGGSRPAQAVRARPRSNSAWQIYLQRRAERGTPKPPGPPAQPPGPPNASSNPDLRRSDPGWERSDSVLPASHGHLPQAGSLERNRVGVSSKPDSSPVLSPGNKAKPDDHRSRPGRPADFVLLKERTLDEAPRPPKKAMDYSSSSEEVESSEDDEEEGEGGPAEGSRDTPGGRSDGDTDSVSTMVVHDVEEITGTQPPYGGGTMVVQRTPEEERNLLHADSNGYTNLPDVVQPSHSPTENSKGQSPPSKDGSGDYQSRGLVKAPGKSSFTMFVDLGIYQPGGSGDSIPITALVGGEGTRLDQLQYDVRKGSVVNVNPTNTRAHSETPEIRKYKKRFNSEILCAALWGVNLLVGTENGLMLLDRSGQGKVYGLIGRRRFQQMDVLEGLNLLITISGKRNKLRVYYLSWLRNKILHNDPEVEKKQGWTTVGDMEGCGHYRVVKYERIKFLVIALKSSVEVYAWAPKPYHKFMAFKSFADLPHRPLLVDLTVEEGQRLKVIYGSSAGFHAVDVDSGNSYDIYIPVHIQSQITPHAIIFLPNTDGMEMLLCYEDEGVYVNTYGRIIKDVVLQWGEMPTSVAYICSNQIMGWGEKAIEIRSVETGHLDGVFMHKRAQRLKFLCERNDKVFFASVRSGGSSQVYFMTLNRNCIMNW

Q: How did the % of control [1] turn out when Cc1cc(F)c(C(=O)Nc2cccc(-c3nncn3C(C)C)n2)cc1-n1cnc(C2CC2)c1 was run?
A: 97%

Q: Which % of control [2] does the source give for Nc1cnc(N2CCc3cc(S(=O)(=O)Nc4c(F)cc(Cl)cc4F)cc(N4CCCC4=O)c32)nc1 [TP-020n] here?
A: 100%

Q: COc1cc(Nc2nc(C)cc(-c3cnn4nc(OC)ccc34)n2)cc(C(F)(F)F)c1 was tested. Which % of control (Misshapen-like kinase 1) did it give?
A: 79%

Q: For O[C@H]1CC[C@H](Nc2ncc3nc(Nc4c(F)cc(F)cc4F)n([C@H]4CCOC4)c3n2)CC1, which % of control [3] is on record?
A: 100%
